Assays:
Type in all cases: cell-based
[1] = system: ion channels of a Lymnaea Stagnalis neuron; assay: Extracellular recording, average of standard deviations of the electrical signal (Example 3); conditions: 0, 0.1, 0.3, 1, 3, 10, 30 and 100 μM in artificial cerebrospinal fluid; 10 seconds of data
Description: The apparatus having the configuration shown in FIG. 13 was used to measure an action of a neuron to the chemical substance Carbachol, where the neuron was prepared from Lymnaea Stagnalis. Carbachol is a chemical substance known as an analog of the neurotransmitter Acetylcholine. Carbachol (manufactured by Sigma) was dissolved in artificial cerebrospinal fluid to concentrations of 0, 0.1, 0.3, 1, 3, 10, 30 and 100 μM. The solutions having these concentrations were used to measure an electrical signal emitted by the neuron. For each Carbachol concentration, time-series data for 10 seconds was obtained from the measurement section (signal source) 101 comprising the sensor substrate, and was sampled at intervals of 100 miliseconds, and the standard deviation of the sampling data was calculated. The average of the standard deviation was plotted in FIG. 17.

[2] = system: ion channels of a Lymnaea Stagnalis neuron; assay: Extracellular recording, normal distribution of standard deviations before and after application (Example 4); conditions: after applying 50 μM; 0.478 before the application
From the text: FIG. 14 is a conceptual diagram showing a configuration of an apparatus for detecting an action of a subject chemical substance on a biological sample according to the present invention. The apparatus is the same as the apparatus of FIG. 13, except that a normal distribution approximation section 103, an average/half-width calculation section 106 and an activity categorization section 109 are employed in place of the average calculation section 105 and the activity calculation section 108. Communications between each section are indicated by a dashed line or a solid line in FIG. 13. […] Note that similar to the apparatus of FIG. 13, the unit standard deviation calculation section 102, the normal distribution approximation section 103, the average/half-width calculation section 106 and the activity categorization section 109 may be representatively software programs which are recorded in a hard disk of a computer. […] Before and after 50 μM-concentration Carbachol was applied to a Lymnaea Stagnalis neuron, signals were obtained from the measurement section (signal source) 101, and the standard deviation of the signals was calculated in a manner similar to that of Example 1. […]

[3] = system: Neurons prepared from the cerebral cortex of gestation day 17 SD rat embryos

Compound | average of the standard deviation every 100 miliseconds versus concentration [1] | average of the normal distribution of standard deviation values every 5 miliseconds [2] | frequency at which the noise has a maximal value [3] | noise intensity in the absence of the Ca antagonist relative to that in its presence [3]
C[N+](C)(C)CCOC(N)=O [Carbachol] | the greater the Carbachol concentration, the greater the average of the standard deviation every 100 miliseconds | 0.703 |  | 
ω-conotoxin GVIA [Ca antagonist] |  |  | about 4 Hz | about 1.5 times

Reference: patent US20030113833A1, “Device for measuring extracellular potential, method of measuring extracellular potential by using the same and apparatus for quickly screening drug provided therewith” (priority 2001, published 2003)
